Here are results for one compound from patent US20140303216A1, “COMPOSITIONS AND METHODS FOR INDUCING DISRUPTION OF BLOOD VASCULATURE AND FOR REDUCING ANGIOGENESIS” (BOARD OF REGENTS, THE UNIVERSITY OF TEXAS SYSTEM, priority 2011, published 2014).

Series [1] relates to HT1080 human fibrosarcoma xenograft. Briefly: HT1080 human fibrosarcoma xenograft model. The class given is in vivo, athymic Cre nu/nu mice. The following applies: TBZ 50 mg/kg. As to the method: Specific pathogen-free athymic Cre Nu/nu mice were purchased from Charles River Laboratories. The HT-1080 human fibrosarcoma cell line was obtained from the American Type Culture Collection (ATCC). HT-1080 cells were cultured in DMEM (Gibco) containing 10% fetal bovine serum (FBS, Gibco) in tissue culture flasks at 37° C. in a humidified atmosphere of 5% CO2. In order to generate a mouse xenograft model, a suspension of the HT-1080 cells (3×10^6 in 50p1 PBS) mixed with an equal volume of Matrigel (BD Bioscience) was subcutaneously implanted into the flank region of 7-8 week old female mice. Upon establishment of tumors (approx. 40 mm^3), mice were given intraperitoneal injections of 1 mg thiabendazole (Sigma-Aldrich), suspended in 20 μl 100% DMSO. As a control, an equal volume of DMSO was injected in the same manner. Tumor growth was monitored by measuring the length and width of each tumor using digital calipers, and the tumor volume in mm^3 calculated by the formula: Volume=(width)^2×length/2. Upon a tumor reaching the maximum size permitted by the Institutional Animal Care and Use Committee (1.5 cm in diameter), the mouse was sacrificed, and the tumor excised. […] Control cells received 1% DMSO.

The subject of a further series is Xenopus embryos. Description: Xenopus embryo morphology and developmental defects. Type of series: in vivo. From the text: Female adult Xenopus were ovulated by injections of human chorionic gonadotropin, and eggs were fertilized in vitro and dejellied in 3% cysteine (pH 7.9) and subsequently reared in 1⁄3×Marc's modified Ringer's (MMR) solution. For microinjections, embryos were placed in a solution of 2% Ficoll in 1⁄3×MMR solution, injected using forceps and an Oxford universal manipulator, reared in 2% Ficoll in 1⁄3×MMR to stage 9, then washed and reared in 1⁄3×MMR solution alone. For bilateral rab11b knock-down experiments, the posterior cardinal vein and intersomitic veins were targeted by injecting Morpholino antisense oligonucleotides (MOs) into the two ventral cells equatorially at the four-cell stage. For unilateral knockdown, only one ventral cell was injected. MOs were injected at 40 ng per blastomere. For the experiments to see the drug effects, embryos were placed in a solution of each chemical dissolved in 1% DMSO diluted in 1⁄3×MMR during indicated stages. For bead micro-surgery implantation, Affi-Gel Blue Gel beads (Bio-Rad) were soaked with 0.7 mg/ml recombinant mouse VEGF 164 aa (R&D systems) or BSA as a control. Whole-mount in situ hybridization for […] performed as described^29. Immunostaining for Xenopus was performed as previously described (Lee et al., 2008). Embryos at stage 35-36 were fixed in 1×MEMFA. 12/101 (1:500; DSHB), and primary antibodies were detected with Alexa Fluor-488 or 555 goat anti-mouse Immunoglobulin (IgG).

The test system of series [2] is HUVECs. Briefly: HUVEC cytoskeleton imaging (actin stress fibers, β-tubulin immunohistochemistry).
Procedure: Alexa Fluor 488 phalloidin (Invitrogen) and/or 4′,6-Diamidino-2-phenylindole (Sigma) were added as needed.
The test system of series [3] is developing Xenopus embryos. Description: Ectopic angiogenesis stimulated by VEGF-soaked beads implanted into Xenopus embryos. The class given is in vivo, Xenopus laevis. As to the method: FIG. 12. TBZ inhibits ectopic angiogenesis (note the doubled PCV in the left panel) stimulated by Affy-gel blue beads (75-150 μm diameter, indicated by white arrowheads) pre-soaked with 0.7 mg/ml vascular endothelial growth factor (VEGF) and microsurgically implanted into developing Xenopus embryos, assaying for the vasculature by ISH versus erg or apinr (showing data for erg). 6 of 8 control animals developed ectopic PCV or VV, as opposed to 0 of 9 TBZ-dosed animals (p value=0.0023).
Female adult Xenopus were ovulated by injections of human chorionic gonadotropin, and eggs were fertilized in vitro and dejellied in 3% cysteine (pH 7.9) and subsequently reared in ⅓×Marc's modified Ringer's (MMR) solution. For microinjections, embryos were placed in a solution of 2% Ficoll in ⅓×MMR solution, injected using forceps and an Oxford universal manipulator, reared in 2% Ficoll in ⅓×MMR to stage 9, then washed and reared in ⅓×MMR solution alone. For bilateral rab11b knock-down experiments, the posterior cardinal vein and intersomitic veins were targeted by injecting Morpholino antisense oligonucleotides (MOs) into the two ventral cells equatorially at the four-cell stage. For unilateral knockdown, only one ventral cell was injected. MOs were injected at 40 ng per blastomere. […]

Series [4] relates to HUVECs. Description: HUVEC wound scratch cell migration assay. Type of series: cell-based, human. The conditions noted are these: 250 μM TBZ, 15 h. As to the method:
HUVECs (1.2×10^5 cells) were seeded into 24-well plate for 24 h, and the monolayers were wounded identically. Then, cells were washed with PBS and treated with EBM-2 containing 1% DMSO or 250 μM TBZ dissolved in 1% DMSO with combination of Y27632 or GGPP (Sigma). In the case of Y27632 treatment, cells were preincubated for 2 h before wounding. Cells were photographed at time zero and after 15 h, and the ratios of cell free area [(0 h-15 h)/0 h] were calculated.

For series [5] the following is noted: short-term or long-term studies at doses up to 15 times the usual human dose; cited from earlier work.
The conditions of series [6]: rats; cited from earlier work.
For series [7] the following is noted: mice; cited from earlier work.
A further series concerns HUVEC cells. Briefly: HUVEC apoptosis and proliferation (Caspase-3, Phospho-histone H3 immunostaining). Type of series: cell-based, human. The following applies: cultured on 0.1% gelatin. From the text: FIG. 18. TBZ treatment (A) increases apoptosis and (B) decreases proliferation of HUVEC cells cultured on 0.1% gelatin, but only by approximately 2-fold. Both changes are significant under a t test (p=0.015, p=0.01, respectively). Error bars represent mean±1 s.d. across 14-16 fields of view of 200× magnification confocal microscopy cell images across 2-3 independent experiments. Scale bar, 100 μm.
Control cells received 1% DMSO.

Molecules are shown by their SMILES. Where two headings read alike, the source gives them in different places.

As for `c1ccc2[nH]c(-c3cscn3)nc2c1` [TBZ, 4-(1H-1,3-benzodiazol-2-yl)-1,3-thiazole], the “tumor microvessel density in xenografts (CD31 staining)” value in [1] is listed as “significantly impair”. For the same compound, in series [1] (intraperitoneal, 27 d), the “xenograft growth, time course of tumor size and final tumor mass” value was “significantly slowed”. Further, the “somitic muscle, defined with the 12/101 antibody” value in the series with Xenopus embryos (250 μM TBZ, 1% DMSO, treated at stage 31, imaged at stages 35-36, compared to 1% DMSO control) is “normal”. In the series on Xenopus embryos (at the stages when the vasculature was severely disrupted), the “overall morphology and patterning of treated Xenopus embryos” value is given as “grossly normal”. Besides, the actin stress fibers result in the series on HUVECs [2] (250 μM TBZ versus 1% DMSO control) is “disorganization of actin stress fibers”. The “gross organization of the MT cytoskeleton” value in the series on HUVECs [2] (HUVEC cells in culture, 250 μM TBZ) is recorded as “only a very slight effect”. Also, the “animals that developed ectopic PCV or VV” value in [3] (beads soaked with 0.7 mg/ml VEGF, control 6 of 8, p value=0.0023) is on record as 0 of 9. Further, in series [3] (frog embryos), the “ectopic angiogenesis induced by ectopic VEGF” value was “blocked”. The “endothelial cell migration in scratch wound assay” value in the series with HUVECs [4] was “significantly slowed”. In addition, the carcinogenic effects entry in [5] is listed as “no carcinogenic effects”. For the same compound, the effect on fertility entry in series [6] and in [7] was “does not appear to affect fertility” throughout. Further, in the series on HUVEC cells (p=0.01), the “decrease of proliferation of HUVEC cells” value is “approximately 2 fold”. Also, the “increase of apoptosis of HUVEC cells” value with HUVEC cells (p=0.015) is reported as “approximately 2 fold”.
